Values quoted from earlier work in US20240082176A1 (Productos Farmaceuticos, S.A. DE C.V., priority 2017, published 2024).
Each block holds one molecule with its values, some of them ahead of it.

What was measured:
[1] = system: citric acid-induced cough
[2] = in vivo
[3] = in vivo; remark: listed apart in the source

elimination half-life [2]: 4 h
SMILES: OCC(O)CN1CCN(c2ccccc2)CC1 (racemic) [dropropizine, (R, S)-3-(4-phenylpiperazin-1-yl) propane-1,2-diol]
time after administration at which cough suppression is reached ([1]; after the administration of the drug): 1 h | period for which the antitussive effect persists ([1]; human, in vivo): 6 h | antitussive activity compared with codeine (cough; vs codeine): comparable | antitussive activity compared with its levo enantiomer (cough; vs levodropropizine): comparable

renal clearance as share of total clearance [3]: 8% | terminal elimination half-life [3]: 10 h
SMILES: Nc1c(Br)cc(Br)cc1CN[C@H]1CC[C@H](O)CC1 [ambroxol, trans-4-[(2-amino-3,5-dibromophenyl)methylamino] cyclohexane-1-ol]

plasma protein binding (plasma protein): 11-14% | oral bioavailability (estimated): greater than 75% | half-life t1/2 (in vivo): 2 h
SMILES: OC[C@@H](O)CN1CCN(c2ccccc2)CC1 [levodropropizine]
